Test results as given in patent US12630510B2, “EP2 antagonist” (ONO PHARMACEUTICAL CO., LTD., priority 2019, dated 2026).

These compounds were tested against T1, human EP2 receptor (Homo sapiens, UniProt P43116) (assay: Experiment of measuring EP2 antagonistic activity using cells expressing prostanoid receptor (cAMP)). Details: CHO cells expressing human EP2 receptor; PGE2 10 nmol/L; cAMP quantified after 1 hour at room temperature; read-out: EP2_IC50.
T1 construct: expressed in transfected cells; host or cells: CHO cells
T1 sequence (P43116 whole entry): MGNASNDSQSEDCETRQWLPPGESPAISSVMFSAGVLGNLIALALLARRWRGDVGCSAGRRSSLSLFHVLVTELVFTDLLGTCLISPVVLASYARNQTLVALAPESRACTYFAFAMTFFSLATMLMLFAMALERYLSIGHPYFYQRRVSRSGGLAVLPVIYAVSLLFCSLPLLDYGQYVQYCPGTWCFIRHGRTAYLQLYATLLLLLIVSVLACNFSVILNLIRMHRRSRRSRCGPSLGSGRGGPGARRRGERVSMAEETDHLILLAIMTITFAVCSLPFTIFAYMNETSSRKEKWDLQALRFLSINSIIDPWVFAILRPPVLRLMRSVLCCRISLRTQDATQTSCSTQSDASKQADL
Format: cell-based
Experimental: CHO cells on each of which a human EP2 receptor had been expressed were prepared in accordance with the method by Nishigaki et al, (FEBS Letters, vol. 364, pp. 339-341, 1995) and were then cryopreserved in CELLBANKER2 (Nippon Zenyaku Kogyo Co., Ltd.) at a concentration of 1.5×10^7 cells/mL/vial. The CHO cells thus prepared were used in the experiment. The cells were thawed, and were then suspended in an assay medium (D-PBS containing 1 mmol/L IBMX, 2 μmol/L Diclofenac) at a concentration of 5×10^5 cells/mL. PGE2 alone having a final concentration of 10 nmol/L or a solution (10 μL) containing the PGE2 and a test compound was added to the cell suspension (10 μL) to initiate the reaction. After the reaction was performed at room temperature for 1 hour, the amount of cAMP in the cells was quantified in accordance with the method described in cAMP Gs Dynamic kit (CISBIO).
The antagonistic activity (IC50 value) of a test compound was calculated as a percentage of suppression of the reaction at 10 nM, which was a concentration at which a submaximal cAMP production activity was observed when PGE2 alone was employed. In this manner, an IC50 value was determined.

Row | Compound | IC50 [nM]
1 | Cc1cc(OCCc2ccccc2)cc(C)c1C(=O)Nc1cc([C@H]2C[C@H]2C(=O)O)ccc1C(F)(F)F (racemic) [Example 11, rel-(1R,2S)-2-[3-{[2,6-Dimethyl-4-(2-phenylethoxy)benzoyl]amino}-4-(trifluoromethyl)phenyl]cyclopropanecarboxylic acid] | 2.2
2 | CC[C@H](C)n1c(CCOc2cc(F)nc(Cl)c2)ccc1C(=O)Nc1cc([C@H]2C[C@H]2C(=O)O)ccc1C(F)(F)F [Example 10, (1R,2S)-2-[3-{[(1-[(2S)-2-Butanyl]-5-{2-[(2-chloro-6-fluoro-4-pyridinyl)oxy]ethyl}-1H-pyrrol-2-yl)carbonyl]amino}-4-(trifluoromethyl)phenyl]cyclopropanecarboxylic acid] | 0.3
3 | Cc1cc(CCCc2ccccc2)cc(C)c1C(=O)Nc1cc([C@H]2C[C@H]2C(=O)O)ccc1C(F)(F)F [Example 12, (1R,2S)-2-[3-{[2,6-Dimethyl-4-(3-phenylpropyl)benzoyl]amino}-4-(trifluoromethyl)phenyl]cyclopropanecarboxylic acid] | 1
4 | Cc1cc(OCCc2ccc(F)cc2F)cc(C)c1C(=O)Nc1cc([C@H]2C[C@H]2C(=O)O)ccc1C(F)(F)F [Example 13, (1R,2S)-2-[3-({4-[2-(2,4-Difluorophenyl)ethoxy]-2,6-dimethylbenzoyl}amino)-4-(trifluoromethyl)phenyl]cyclopropanecarboxylic acid] | 4.7
5 | Cc1cc(OCCc2ccccc2)cc(C)c1C(=O)Nc1cc([C@H]2C[C@H]2C(=O)O)c(Cl)cc1C(F)(F)F [Example 15, (1R,2S)-2-[2-Chloro-5-{[2,6-dimethyl-4-(2-phenylethoxy)benzoyl]amino}-4-(trifluoromethyl)phenyl]cyclopropanecarboxylic acid] | < 0.3
6 | Cc1cc(OCCc2ccccc2)cc(C)c1C(=O)Nc1cc([C@@H]2C[C@@H]2C(=O)O)ccc1C(F)(F)F [Example 19, (1S,2R)-2-[3-{[2,6-Dimethyl-4-(2-phenylethoxy)benzoyl]amino}-4-(trifluoromethyl)phenyl]cyclopropanecarboxylic acid] | 12
7 | Cc1cc(OCCc2cnn(C)c2)cc(C)c1C(=O)Nc1cc([C@H]2C[C@H]2C(=O)O)ccc1C(F)(F)F [Example 20, (1R,2S)-2-[3-({2,6-Dimethyl-4-[2-(1-methyl-1H-pyrazol-4-yl)ethoxy]benzoyl}amino)-4-(trifluoromethyl)phenyl]cyclopropanecarboxylic acid] | 28
8 | Cc1cc(OCCC2CC2)cc(C)c1C(=O)Nc1cc([C@H]2C[C@H]2C(=O)O)ccc1C(F)(F)F [Example 20-1, (1R,2S)-2-[3-{[4-(2-Cyclopropylethoxy)-2,6-dimethylbenzoyl]amino}-4-(trifluoromethyl)phenyl]cyclopropanecarboxylic acid] | 5
9 | Cc1cc(Oc2cncc(Cl)n2)cc(C)c1C(=O)Nc1cc([C@H]2C[C@H]2C(=O)O)ccc1C(F)(F)F [Example 21, (1R,2S)-2-[3-({4-[(6-Chloro-2-pyrazinyl)oxy]-2,6-dimethylbenzoyl}amino)-4-(trifluoromethyl)phenyl]cyclopropanecarboxylic acid] | 8.1
10 | Cc1cc(OCCc2ccccc2)cc(C)c1C(=O)Nc1cc(CCC(=O)O)ccc1C(F)(F)F [Example 24, 3-[3-f{[2,6-Dimethyl-4-(2-phenylethoxy)benzoyl]amino}-4-(trifluoromethyl)phenyl]propanoic acid] | 5.2

Next, values leading:

Row | IC50 [nM] | Compound
11 | < 0.3 | CCC(C)n1c(CCCc2ccccc2)ccc1C(=O)Nc1cc([C@H]2C[C@H]2C(=O)O)ccc1C(F)(F)F (relative stereo) [Example 1, rel-(1R,2S)-2-[3-({[1-sec-Butyl-5-(3-phenylpropyl)-1H-pyrrole-2-carbonyl]amino)-4-(trifluoromethyl)phenyl]cyclopropanecarboxylic acid]
12 | 1.6 | CC[C@H](C)n1c(CCCc2ccccc2)ccc1C(=O)Nc1cc([C@H]2C[C@H]2C(=O)O)ccc1C(F)(F)F (relative stereo) [Example 2, rel-(1R,2S)-2-{3-[({1-[(2S)-2-Butanyl]-5-(3-phenylpropyl)-1H-pyrrol-2-yl}carbonyl)amino]-4-(trifluoromethyl)phenyl}cyclopropanecarboxylic acid]
13 | 5.4 | CC[C@H](C)n1c(CCCc2ccccc2)ccc1C(=O)Nc1cc(C)cc([C@H]2C[C@H]2C(=O)O)c1 (relative stereo) [Example 2-1, rel-(1R,2S)-2-{3-[({1-[(2S)-2-Butanyl]-5-(3-phenylpropyl)-1H-pyrrol-2-yl}carbonyl)amino]-5-methylphenyl}cyclopropanecarboxylic acid]
14 | 33 | CC[C@H](C)n1c(CCCc2ccccc2)ccc1C(=O)Nc1cc(C)cc([C@@H]2C[C@H]2C(=O)O)c1 (relative stereo) [Example 2-2, rel-(1R,2R)-2-{3-[({1-[(2S)-2-Butanyl]-5-(3-phenylpropyl)-1H-pyrrol-2-yl}carbonyl)amino]-5-methylphenyl}cyclopropanecarboxylic acid]
15 | 2.1 | CC(C)n1c(CCCc2ccccc2)ccc1C(=O)Nc1cc([C@@H]2C[C@@H]2C(=O)O)ccc1C(F)(F)F [Example 3-1, (1S,2R)-2-[3-({[1-Isopropyl-5-(3-phenylpropyl)-1H-pyrrol-2-yl]carbonyl}amino)-4-(trifluoromethyl)phenyl]cyclopropanecarboxylic acid]
16 | 77 | CC(C)n1c(CCCc2ccccc2)ccc1C(=O)Nc1cc([C@@H]2C[C@H]2C(=O)O)ccc1C(F)(F)F [Example 3-2, (1R,2R)-2-[3-({[1-Isopropyl-5-(3-phenylpropyl)-1H-pyrrol-2-yl]carbonyl}amino)-4-(trifluoromethyl)phenyl]cyclopropanecarboxylic acid]
17 | 2.6 | CC[C@H](C)n1c(CCCc2ccccc2)ccc1C(=O)Nc1cc([C@H]2C[C@H]2C(=O)O)ccc1OC [Example 4, (1R,2S)-2-{3-[({1-[(2S)-2-Butanyl]-5-(3-phenylpropyl)-1H-pyrrol-2-yl}carbonyl)amino]-4-methoxyphenyl}cyclopropanecarboxylic acid]
18 | 2.5 | CC[C@H](C)n1c(CCCc2ccccc2)ccc1C(=O)Nc1cc([C@@H]2C[C@@H]2C(=O)O)ccc1C(F)(F)F [Example 5, (1S,2R)-2-{3-[({1-[(2S)-2-Butanyl]-5-(3-phenylpropyl)-1H-pyrrol-2-yl}carbonyl)amino]-4-(trifluoromethyl)phenyl}cyclopropanecarboxylic acid]
19 | < 0.3 | CC[C@H](C)n1c(CCCc2ccccc2)ccc1C(=O)Nc1cc([C@H]2C[C@H]2C(=O)O)ccc1C(F)(F)F [Example 6, (1R,2S)-2-{3-[({1-[(2S)-2-Butanyl]-5-(3-phenylpropyl)-1H-pyrrol-2-yl}carbonyl)amino]-4-(trifluoromethyl)phenyl}cyclopropanecarboxylic acid]
20 | 0.3 | CC[C@H](C)n1c(CCCc2ccccc2)ccc1C(=O)Nc1cc([C@H]2C[C@H]2C(=O)O)ccc1Cl [Example 7, (1R,2S)-2-{3-[({1-[(2S)-2-Butanyl]-5-(3-phenylpropyl)-1H-pyrrol-2-yl}carbonyl)amino]-4-chlorophenyl}cyclopropanecarboxylic acid]
21 | 0.4 | CC[C@H](C)n1c(CCOCc2ccccc2)ccc1C(=O)Nc1cc([C@H]2C[C@H]2C(=O)O)ccc1C(F)(F)F [Example 8, (1R,2S)-2-{3-[({5-[2-(Benzyloxy)ethyl]-1-[(2S)-2-butanyl]-1H-pyrrol-2-yl}carbonyl)amino]-4-(trifluoromethyl)phenyl}cyclopropanecarboxylic acid]
